Results as given in patent US12492173B2, “Herbicidal substituted N-tetrazolyl aryl carboxamides” (Bayer Aktiengesellschaft, priority 2019, dated 2025).

How the values were obtained:
Assay type in all cases: in vivo
Lolium multiflorum [1] = experiment: Post-emergence herbicidal action, LOLMU; parameters: key: % herbicidal action: 100 = plants died, 0 = like control
Experimental: [table] 2. Post-Emergence Herbicidal Action Against Harmful Plants Seeds of monocotyledonous and dicotyledonous weed and crop plants are laid out in sandy loam soil in wood-fiber pots, covered with soil and cultivated in a greenhouse under good growth conditions. 2 to 3 weeks after sowing, the test plants are treated at the one-leaf stage. The compounds of the invention, formulated in the form of wettable powders (WP) or as emulsion concentrates (EC), are then sprayed onto the green parts of the plants in the form of an aqueous suspension or emulsion at a water application rate equating to 600 to 800 l/ha, with addition of 0.2% wetting agent. After the test plants have been left to stand in the greenhouse under optimal growth conditions for about 3 weeks, the action of the preparations is assessed visually in comparison to untreated controls (herbicidal action in percent (%): 100% activity=the plants have died, 0% activity=like control plants). […] The tables below illustrate, in an exemplary manner, the post-emergence herbicidal action of the compounds according to the invention, the herbicidal activity being stated in percent. In the experiments that follow, herbicidal action of numerous inventive compounds and the known compounds that are structurally closest from D1 (WO 2012/028579 A1) and D2 (WO 2018/202535 A1) were compared under the above-specified conditions by the pre-emergence and post-emergence method. The example numbers given in the tables relate to the compounds disclosed in the respective documents. In addition to the compounds disclosed in D1 and D2, the following compounds V-1 to V-14 that are encompassed by D1 or D2 but are not compounds specified therein were used in the comparative experiments: • V-1: 2-(methylsulfanyl)-3-(methylsulfinyl)-N-(1-methyl-1H-tetrazol-5-yl)-4-(trifluoromethyl)benzamide • V-2: 2-(methylsulfanyl)-3-(methylsulfonyl)-N-(1-methyl-1H-tetrazol-5-yl)-4-(trifluoromethyl)benzamide • V-3: 2,3-bis(ethylsulfanyl)-N-(1-methyl-1H-tetrazol-5-yl)-4-(trifluoromethyl)benzamide • V-4: 2-chloro-3-(ethylsulfanyl)-N-(1-methyl-1H-tetrazol-5-yl)-4-(trifluoromethyl)benzamide • V-5: 2-chloro-4-iodo-3-(methylsulfanyl)-N-(1-methyl-1H-tetrazol-5-yl)benzamide • V-6: 2-chloro-4-iodo-3-(methylsulfinyl)-N-(1-methyl-1H-tetrazol-5-yl)benzamide • V-7: 2-chloro-4-iodo-3-(methylsulfonyl)-N-(1-methyl-1H-tetrazol-5-yl)benzamide • V-8: 2-bromo-3-(methylsulfanyl)-N-(1-methyl-1H-tetrazol-5-yl)-4-(trifluoromethyl)benzamide • V-9: 2-bromo-3-(methylsulfinyl)-N-(1-methyl-1H-tetrazol-5-yl)-4-(trifluoromethyl)benzamide • V-10: 2-bromo-3-(methylsulfonyl)-N-(1-methyl-1H-tetrazol-5-yl)-4-(trifluoromethyl)benzamide • V-11: 2-bromo-3-(ethylsulfanyl)-N-(1-methyl-1H-tetrazol-5-yl)-4-(trifluoromethyl)benzamide • V-12: 2-bromo-3-(ethylsulfinyl)-N-(1-methyl-1H-tetrazol-5-yl)-4-(trifluoromethyl)benzamide • V-13: 2-bromo-3-(ethylsulfonyl)-N-(1-methyl-1-1H-tetrazol-5-yl)-4-(trifluoromethyl)benzamide • V-14: 2-cyclopropyl-3-(ethylsulfanyl)-N-(1-methyl-1H-tetrazol-5-yl)-4-(trifluoromethyl)benzamide Herbicidal Pre-Emergence Action: […]

Lolium multiflorum [2] = experiment: Pre-emergence herbicidal action, LOLMU; details: for herbicidal activity LOLMU: dosage 320 g/ha, scored visually after 3 weeks vs untreated controls (100% = plants have died)
Outline: (§1)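 Visual scoring after 3 weeks in the greenhouse, relative to untreated pots, gave percent activity, where 100% means dead plants and 0% equals controls. Treatment was a pre-emergence soil-surface spray of WP or EC formulations in water (600 to 800 l/ha, 0.2% wetting agent) over seeds covered in sandy loam.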

Pharbitis purpurea = experiment: Pre-emergence herbicidal action, PHBPU; details: dosage 320 g/ha, scored visually after 3 weeks vs untreated controls (100% = plants have died)
Outline: as §1

Cyperus esculentus = experiment: Post-emergence herbicidal action, CYPES; parameters: key: % herbicidal action vs untreated; 100 = plants died, 0 = like control; details: for Herbicidal action against CYPES: comparative experiment, 5 g of a.i./ha
Outline: (§2)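 Greenhouse post-emergence test: weeds sown in sandy loam were sprayed once at one leaf, 2 to 3 weeks from sowing, with aqueous WP or EC preparations carrying 0.2% wetting agent. Effect is scored visually after about 3 weeks.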

Setaria viridis = experiment: Post-emergence herbicidal action, SETVI; parameters: key: % herbicidal action vs untreated; 100 = plants died, 0 = like control
Outline: as §2

Abutilon theophrasti = experiment: Pre-emergence herbicidal action, ABUTH; details: dosage 320 g/ha, scored visually after 3 weeks vs untreated controls (100% = plants have died)
Outline: as §1

Stellaria media = experiment: Pre-emergence herbicidal action, STEME; parameters: key to Herbicidal action against STEME: % activity: 100 = plants have died, 0 = like control plants; details: for herbicidal activity STEME: dosage 320 g/ha, scored visually after 3 weeks vs untreated controls (100% = plants have died)
Outline: as §1

[3] = comparative experiment, 20 g of a.i./ha

SMILES | herbicidal action LOLMU (Lolium multiflorum [1]; post-emergence, dosage 80 g/ha) [%] | Herbicidal action against LOLMU (Lolium multiflorum [2]; [3]) | herbicidal activity LOLMU (Lolium multiflorum [2]) [%] | herbicidal activity PHBPU (Pharbitis purpurea) [%] | Herbicidal action against CYPES (Cyperus esculentus; post-emergence) | herbicidal action CYPES (Cyperus esculentus; post-emergence, dosage 80 g/ha) [%] | herbicidal action SETVI (Setaria viridis; post-emergence, dosage 80 g/ha) [%] | herbicidal activity ABUTH (Abutilon theophrasti) [%] | herbicidal activity STEME (Stellaria media) [%] | herbicidal action LOLMU (Lolium multiflorum [1]; Dosage 80 g/ha) | herbicidal action CYPES (Cyperus esculentus; Dosage 80 g/ha) | herbicidal action SETVI (Setaria viridis; Dosage 80 g/ha) | Herbicidal action against STEME (Stellaria media; [3])
Cn1nnnc1NC(=O)c1ccc(C(F)(F)F)c(C[S+](C)[O-])c1Cl (racemic) [Example 1-297] | 100 | 30 | 100 | 90 | 60 | 80 | 80 | 100 | 90 | – | – | – | –
Cc1c(C(=O)Nc2nnnn2C)ccc(C(F)(F)F)c1C[S+](C)[O-] (stereo not drawn) [Example 1-84] | 80 | – | – | 80 | – | 80 | 100 | 100 | 100 | – | – | – | –
Cc1c(C(=O)Nc2nnnn2C)ccc(C(F)(F)F)c1CS(C)(=O)=O [Example 1-85] | – | – | – | – | – | – | – | 100 | 100 | 80 | 80 | 100 | –
CSCc1c(C(F)(F)F)ccc(C(=O)Nc2nnnn2C)c1SC [Example 1-161] | – | – | 90 | – | – | – | – | 100 | 100 | – | 80 | 100 | –
CSCc1c(C(F)(F)F)ccc(C(=O)Nc2nnnn2C)c1Cl [Example 1-296] | 90 | – | 90 | – | – | 90 | 100 | 100 | 100 | – | – | – | –
Cn1nnnc1NC(=O)c1ccc(C(F)(F)F)c(CS(C)(=O)=O)c1Cl [Example 1-298] | 80 | – | 90 | 90 | 60 | 90 | 100 | 100 | 100 | – | – | – | –
CSCc1c(C(F)(F)F)ccc(C(=O)Nc2nnnn2C)c1Br [Example 1-380] | 100 | – | – | 80 | – | – | 90 | 100 | 90 | – | – | – | –
Cn1nnnc1NC(=O)c1ccc(C(F)(F)F)c(C[S+](C)[O-])c1Br (stereo not drawn) [Example 1-381] | 80 | – | – | 80 | – | 90 | 100 | 100 | 90 | – | – | – | 90
Cn1nnnc1NC(=O)c1ccc(Cl)c(CS(C)(=O)=O)c1Cl [Example 1-561] | – | – | 80 | – | – | – | – | 100 | 90 | – | 80 | 100 | –
CCn1nnnc1NC(=O)c1ccc(C(F)(F)F)c(CSC)c1SC [Example 2-161] | – | – | 80 | – | – | 80 | 100 | 100 | 100 | – | – | – | –
CCn1nnnc1NC(=O)c1ccc(C(F)(F)F)c(CSC)c1Br [Example 2-380] | 80 | – | – | 80 | – | – | 100 | 100 | 80 | – | – | – | –
CCn1nnnc1NC(=O)c1ccc(C(F)(F)F)c(C[S+](C)[O-])c1Br (stereo not drawn) [Example 2-381] | 80 | – | 80 | 80 | – | – | 100 | 100 | 90 | – | – | – | –
CCSCc1c(C(F)(F)F)ccc(C(=O)Nc2nnnn2CC)c1Br [Example 2-383] | 80 | – | 100 | – | – | – | 100 | 100 | 100 | – | – | – | –
CCCn1nnnc1NC(=O)c1ccc(C(F)(F)F)c(CS(=O)(=O)CC)c1Br [Example 3-385] | – | – | 90 | – | – | – | – | 100 | 90 | – | – | 90 | –
